Tested on: gp60-mediated caveolar transcytosis
Experiment: Inhibition of transport of paclitaxel from ABX across endothelial monolayers
Assay type: cell-based, human
Settings: FIG. 4
Excerpt: Transport was dependent on albumin.

Compound | effect on transport of paclitaxel from ABX across endothelial monolayers
CCN1C(=O)C=CC1=O [NEM] | inhibited
β-methyl cyclodextrin [BMC] | inhibited

— patent US9671406B2, “SPARC and methods of use thereof” (Abraxis BioScience, LLC, priority 2006, dated 2017)
